Measurements as given in US9636323B2, “Method of treating cancer that overexpresses TopBP1” (Baylor College of Medicine, priority 2014, dated 2017).

Key:
[1] = test system: TopBP1-BRCT7/8 binding to pS1159 peptide; experiment: pS1159 peptide binding assay (streptavidin Sepharose pulldown); conditions: FIG. 1f
Experimental: The GST fusion proteins in Escherichia coli strain BL21 were induced by 0.1 mM IPTG (isopropyl-β-D-thiogalactopyranoside) and purified according to the standard protocol. The GST portion on GST-TopBP1-BRCT7/8 was excised by Pre-Scission protease (Pharmacia). Two purified (>98%) biotin conjugated peptides were synthesized from Sigma Genosys. The peptide sequence is derived from the surrounding sequence of TopBP1 S1159: pP, Btn-[…]pSer^1159NLQWPS and nP, Btn-[…]. Purified TopBP1-BRCT7/8 (2 μg) was incubated with compounds in NETN-A buffer (50 mM NaCl, 1 mM EDTA, 20 mM Tris, 0.5% NP-40) at 4° C. for 3 h with constant rotation. Then 2 μg of purified pP or nP peptides were added and rotated for another 3 h at 4° C. The biotin-conjugated peptides were then pulled down with streptavidin-Sepharose (Amersham). The beads were washed six times with NETN-B buffer (100 mM NaCl, 1 mM EDTA, 0.2 mM phenylmethylsulfonyl fluoride) and then subjected to sodium dodecyl sulfate-polyacrylamide gel electrophoresis (SDS-PAGE) and analyzed by Western blotting with anti-TopBP1 antibody (1:1000, BL893, Bethyl Laboratories).

[2] = test system: TopBP1-BRCT7/8 binding to p53(DBD); experiment: GST-p53(DBD) pulldown assay; conditions: FIG. 1g
Experimental: Purified TopBP1-BRCT7/8 (2 μg) was incubated with compounds in NETN-A buffer as above at 4° C. for 3 h with constant rotation. Then purified GST-p53-DBD or GST (2 μg) were added and rotated for another 3 h at 4° C. GST-p53-DBD was then pulled down with glutathione-Sepharose. The beads were washed six times with NETN-B buffer and then subjected to SDS-PAGE analysis.

O=C(O)CN(CC(=O)O)Cc1cc2c(cc1O)Oc1cc(O)c(CN(CC(=O)O)CC(=O)O)cc1C21OC(=O)c2ccccc21 [Calcein, calcein]
concentrations at which TopBP1/pS1159 interaction was blocked [1]: submicromolar | effective amount of Calcein that needs to be present ([1]; pS1159 peptide binding): 60 to 300 nM | concentrations at which TopBP1/p53(DBD) interaction was blocked [2]: submicromolar | effective amount of Calcein that needs to be present ([2]; GST-p53(DBD) pulldown): 60 to 300 nM
